The values below are quoted from earlier work in patent US9999632B2, “Inhibition of pancreatic lipase” (RD Biomed Limited, priority 2009, dated 2018).

The conditions of this data set: patients treated with Orlistat; cited from earlier work.

In the case of `CCCCCCCCCCC[C@@H](C[C@@H]1OC(=O)[C@H]1CCCCCC)OC(=O)[C@H](CC(C)C)NC=O` [Orlistat, tetrahydrolipstatin], the “patients affected by adverse effects (steatorrhoea, bloating, oily spotting, faecal urgency, faecal incontinence)” value is “up to 40 % of patients”.
